Source: ChEMBL document CHEMBL1201862, “PubChem BioAssay data set” (2004)
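Method: 48-hour compound exposure of cells in 96-well plates, five concentrations, linear interpolation of endpoints. GI50 = concentration required for 50% inhibition of growth.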 Active and inactive are the calls of the source. Cut-off read from the data, not from the text of the source: active = GI50 up to about 1.1 µM and inactive = higher.

How the values were obtained:
Experiment in all cases: NCI anticancer screen, dose series, 48 h
[1] = system: DU-145
[2] = system: SF-268
[3] = system: Hs-578T
[4] = system: SW-620
[5] = system: ACHN
[6] = system: HT-29
[7] = system: OVCAR-5
[8] = system: SF-539
[9] = system: PC-3
[10] = system: CCRF-CEM
[11] = system: RXF 393
[12] = system: MCF7
[13] = system: MDA-N
[14] = system: TK-10
[15] = system: NCI-H23
[16] = system: RPMI-8226
[17] = system: HCT-116
[18] = system: U-251
[19] = system: NCI-H226
[20] = system: M14

In the case of `CN(C)c1ccc(C(N)=O)cn1`, the GI50 [1] is reported as > 100 µM (inactive), the GI50 [2] is reported as > 100 µM (inactive) and the GI50 [3] is reported as > 100 µM (inactive). The GI50 [4] was > 100 µM (inactive), the GI50 [5] was > 100 µM (inactive) and the GI50 [6] was > 100 µM (inactive). For the same compound, the GI50 [7] was > 100 µM (inactive), the GI50 [8] was > 100 µM (inactive) and the GI50 [9] was > 100 µM (inactive). For the same compound, the GI50 [10] was > 100 µM (inactive), the GI50 [11] was > 100 µM (inactive) and the GI50 [12] was > 100 µM (inactive). For the same compound, the GI50 [13] was > 100 µM (inactive), the GI50 [14] was > 100 µM (inactive) and the GI50 [15] was > 100 µM (inactive). The GI50 [16] was > 100 µM (inactive), the GI50 [17] was > 100 µM (inactive) and the GI50 [18] was > 100 µM (inactive).

`CCCCCC/C=C\CCCCCCCCCc1c(O)c(OC)cc(O)c1CN(C)C` was tested, and the GI50 [1] was 17.9 µM (inactive), the GI50 [2] was > 10 µM (inactive) and the GI50 [3] was 2.7 µM (inactive). The GI50 [4] was 2.93 µM (inactive), the GI50 [5] was 10.7 µM (inactive) and the GI50 [6] was 4.44 µM (inactive). For the same compound, the GI50 [7] was 14.5 µM (inactive), the GI50 [8] was 5.3 µM (inactive) and the GI50 [19] was 17 µM (inactive). For the same compound, the GI50 [9] was 2.96 µM (inactive), the GI50 [10] was 0.887 µM (active) and the GI50 [12] was 2.55 µM (inactive). For the same compound, the GI50 [13] was 13 µM (inactive), the GI50 [20] was 11.4 µM (inactive) and the GI50 [14] was 14.6 µM (inactive). The GI50 [15] was 8.61 µM (inactive), the GI50 [16] was 2.44 µM (inactive) and the GI50 [17] was 3.85 µM (inactive). For the same compound, the GI50 [18] was 3.73 µM (inactive).

For `Cc1ccc(CC2(OCCN(C)C)CCC(C(C)(C)C)CC2)cc1` (centres undefined), the GI50 [1] was 3.78 µM (inactive), the GI50 [2] was 11.5 µM (inactive) and the GI50 [3] was 12.1 µM (inactive). The GI50 [4] was 2.25 µM (inactive), the GI50 [5] was 6.87 µM (inactive) and the GI50 [6] was 2.13 µM (inactive). For the same compound, the GI50 [7] was 5.52 µM (inactive), the GI50 [8] was 1.81 µM (inactive) and the GI50 [19] was 5.78 µM (inactive). The GI50 [9] was 3.04 µM (inactive), the GI50 [10] was 2.41 µM (inactive) and the GI50 [12] was 2.43 µM (inactive). For the same compound, the GI50 [13] was 2.53 µM (inactive), the GI50 [20] was 1.79 µM (inactive) and the GI50 [14] was 4.47 µM (inactive). For the same compound, the GI50 [15] was 10.7 µM (inactive), the GI50 [16] was 1.84 µM (inactive) and the GI50 [17] was 2.38 µM (inactive). For the same compound, the GI50 [18] was 2.34 µM (inactive).

In the case of `CCOC(=O)C1=CNC(C(=O)OCC)C1c1cccn1-c1ccccc1` (centres undefined), the GI50 [1] is reported as 41.3 µM (inactive), the GI50 [2] is reported as 31.3 µM (inactive) and the GI50 [3] is reported as 38.6 µM (inactive). For the same compound, the GI50 [4] was 27.1 µM (inactive), the GI50 [5] was 30.5 µM (inactive) and the GI50 [6] was 23 µM (inactive). The GI50 [7] was 52.1 µM (inactive), the GI50 [8] was 20.4 µM (inactive) and the GI50 [19] was 23.3 µM (inactive). The GI50 [9] was 18.8 µM (inactive), the GI50 [10] was 29.3 µM (inactive) and the GI50 [11] was 19.4 µM (inactive). For the same compound, the GI50 [12] was 31.9 µM (inactive), the GI50 [13] was 20 µM (inactive) and the GI50 [20] was 32.9 µM (inactive). For the same compound, the GI50 [14] was 41.8 µM (inactive), the GI50 [15] was 37.7 µM (inactive) and the GI50 [17] was 23.6 µM (inactive). The GI50 [18] was 29.6 µM (inactive).

For `Nc1ccc(Nc2cc(=O)[nH]c(=O)[nH]2)cc1Cl`, the GI50 [1] was > 100 µM (inactive), the GI50 [2] was > 100 µM (inactive) and the GI50 [3] was > 100 µM (inactive). The GI50 [4] was > 100 µM (inactive), the GI50 [5] was > 100 µM (inactive) and the GI50 [6] was > 100 µM (inactive). For the same compound, the GI50 [7] was > 100 µM (inactive), the GI50 [8] was > 100 µM (inactive) and the GI50 [19] was > 100 µM (inactive). The GI50 [9] was > 100 µM (inactive), the GI50 [10] was > 100 µM (inactive) and the GI50 [12] was > 100 µM (inactive). For the same compound, the GI50 [13] was > 100 µM (inactive), the GI50 [20] was > 100 µM (inactive) and the GI50 [14] was > 100 µM (inactive). For the same compound, the GI50 [15] was > 100 µM (inactive), the GI50 [16] was > 100 µM (inactive) and the GI50 [17] was > 100 µM (inactive). The GI50 [18] was > 100 µM (inactive).
